US10174016B2 (BAYER AKTIENGESELLSCHAFT, priority 2014, dated 2019)
pIC50: −log10 of the molar value. Where two headings read alike, the source gives them in different places.

Key:
[1] = target: human P2X2/3 receptor (Homo sapiens (Human), UniProt P56373+Q9UBL9); test: Intracellular calcium measurement (FLIPR, Fluo-4) of antagonist activity at human P2X2/3 receptors; format: cell-based; settings: human P2X2/3, FLIPR calcium assay, agonist α,β-Me-ATP; read-out: hP2X2/3 IC50
How it was run: (§1)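 Antagonism quantified from peak calcium fluorescence (Fluo-4, FLIPR, 90 sec read) evoked by EC80 α,β-Me-ATP, after a 30 min, 37° C. compound pretreatment in 1% DMSO. Human P2X3- or P2X2/3-expressing cells used; triplicate means fitted for IC50, percent maximal inhibition and Hill coefficient.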

[2] = target: human P2X3 receptor (Homo sapiens (Human), UniProt P56373); test: Intracellular calcium measurement (FLIPR, Fluo-4) of antagonist activity at human P2X3 receptors; format: cell-based; settings: read-out: hP2X3 IC50
Sequence of human P2X3 receptor (P56373 whole entry): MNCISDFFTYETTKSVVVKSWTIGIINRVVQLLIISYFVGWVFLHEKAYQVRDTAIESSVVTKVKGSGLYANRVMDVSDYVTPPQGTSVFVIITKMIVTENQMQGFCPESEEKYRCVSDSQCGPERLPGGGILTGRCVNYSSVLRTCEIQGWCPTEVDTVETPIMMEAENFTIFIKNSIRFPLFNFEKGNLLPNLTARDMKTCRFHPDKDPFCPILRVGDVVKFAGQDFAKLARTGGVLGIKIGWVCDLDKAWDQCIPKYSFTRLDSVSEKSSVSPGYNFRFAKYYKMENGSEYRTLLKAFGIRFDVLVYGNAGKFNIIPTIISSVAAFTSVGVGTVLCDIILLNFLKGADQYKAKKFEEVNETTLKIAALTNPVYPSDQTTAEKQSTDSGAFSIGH
How it was run: as §1

[3] = human P2X3, FLIPR calcium assay, agonist α,β-Me-ATP

Sequence of human P2X2/3 receptor (P56373 whole entry): as above
Sequence of human P2X2/3 receptor (Q9UBL9 whole entry): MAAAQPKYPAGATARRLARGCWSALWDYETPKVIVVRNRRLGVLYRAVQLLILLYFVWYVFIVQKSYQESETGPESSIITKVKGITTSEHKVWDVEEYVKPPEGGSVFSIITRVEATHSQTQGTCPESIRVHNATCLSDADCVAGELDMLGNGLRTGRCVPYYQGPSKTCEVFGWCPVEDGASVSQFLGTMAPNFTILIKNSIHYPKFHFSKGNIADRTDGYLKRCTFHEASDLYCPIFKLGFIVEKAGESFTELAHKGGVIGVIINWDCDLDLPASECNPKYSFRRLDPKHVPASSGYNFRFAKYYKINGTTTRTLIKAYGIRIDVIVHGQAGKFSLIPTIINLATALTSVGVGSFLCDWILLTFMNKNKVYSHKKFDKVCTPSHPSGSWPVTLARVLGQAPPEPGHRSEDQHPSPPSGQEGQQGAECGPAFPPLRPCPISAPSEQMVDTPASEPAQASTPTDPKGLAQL

Row | pIC50 [1] | pIC50 [2, 3] | Structure (SMILES) | pIC50 [2]
1 | 6.05 | 7.44 | COC(C)(C)COc1cc(C(=O)N[C@H](C)c2cnc(C)cn2)cc(-c2ncc(Cl)s2)c1 [Example 117, 3-(5-Chloro-1,3-thiazol-2-yl)-5-(2-methoxy-2-methylpropoxy)-N-[(1R)-1-(5-methylpyrazin-2-yl)ethyl]benzamide] | –
2 | 7.22 | 7.82 | Cc1cc(Oc2cc(C(=O)NCc3ccc(C)nn3)cc(-c3ncc(C)s3)c2)ccn1 [Example 101, N-[(6-Methylpyridazin-3-yl)methyl]-3-[(2-methylpyridin-4-yl)oxy]-5-(5-methyl-1,3-thiazol-2-yl)benzamide] | –
3 | 7.08 | 7.96 | Cc1ccc(Oc2cc(C(=O)N[C@H](C)c3cnc(C(F)(F)F)nc3)cc(-c3ncc(C)s3)c2)cn1 [Example 108, 3-[(6-Methylpyridin-3-yl)oxy]-5-(5-methyl-1,3-thiazol-2-yl)-N-{(1R)-1-[2-(trifluoromethyl)pyrimidin-5-yl]ethyl}benzamide] | –
4 | 6.39 | 7.96 | COC(=O)N1CCO[C@@H](COc2cc(C(=O)N[C@H](C)c3cnc(C(F)(F)F)nc3)cc(-c3ncc(C)s3)c2)C1 [Example 392, Methyl (2R)-2-{[3-(5-methyl-1,3-thiazol-2-yl)-5-({(1R)-1-[2-(trifluoromethyl)pyrimidin-5-yl]ethyl}carbamoyl)phenoxy]methyl}morpholine-4-carboxylate] | –
5 | 5.96 | 7.85 | Cc1cnc([C@@H](C)NC(=O)c2cc(OC[C@@H]3CCOC3)cc(-c3ncc(C)s3)c2)cn1 [Example 74, N-[(1R)-1-(5-Methylpyrazin-2-yl)ethyl]-3-(5-methyl-1,3-thiazol-2-yl)-5-[(3R)-tetrahydrofuran-3-ylmethoxy]benzamide] | –
6 | 7.00 | 7.60 | Cc1ccc([C@@H](C)NC(=O)c2cc(OC[C@H]3CCCO3)cc(-c3ncc(C4CCC4)s3)c2)nn1 [Example 270, 3-(5-cyclobutyl-1,3-thiazol-2-yl)-N-[(1R)-1-(6-methylpyridazin-3-yl)ethyl]-5-[(2R)-tetrahydrofuran-2-ylmethoxy]benzamide] | –
7 | 5.79 | 7.74 | Cc1cnc(-c2cc(OC[C@@H]3COCCN3C)cc(C(=O)N[C@H](C)c3ccc(C(F)(F)F)nn3)c2)s1 [Example 389, 3-{[(3S)-4-methylmorpholin-3-yl]methoxy}-5-(5-methyl-1,3-thiazol-2-yl)-N-{(1R)-1-[6-(trifluoromethyl)pyridazin-3-yl]ethyl}benzamide] | –
8 | 6.43 | 7.96 | Cc1cnc(-c2cc(OC3COC3)cc(C(=O)NC(C)c3ncc(Cl)cc3F)c2)s1 (stereo not drawn) [Example 44, N-[1-(5-Chloro-3-fluoropyridin-2-yl)ethyl]-3-(5-methyl-1,3-thiazol-2-yl)-5-(oxetan-3-yloxy)benzamide] | –
9 | 5.73 | 7.41 | Cc1cnc(-c2cc(OC[C@H]3COCCO3)cc(C(=O)N[C@H](C)c3cnc(C(F)(F)F)nc3)c2)s1 [Example 178, 3-[(2R)-1,4-dioxan-2-ylmethoxy]-5-(5-methyl-1,3-thiazol-2-yl)-N-{(1R)-1-[2-(trifluoromethyl)pyrimidin-5-yl]ethyl}benzamide] | –
10 | 7.00 | 8.15 | COC(=O)N1CC2COCC(C1)C2Oc1cc(C(=O)N[C@H](C)c2cnc(C(F)(F)F)nc2)cc(-c2ncc(C)s2)c1 (stereo partly drawn) [Example 345, methyl 9-[3-(5-methyl-1,3-thiazol-2-yl)-5-({(1R)-1-[2-(trifluoromethyl)pyrimidin-5-yl]ethyl}carbamoyl)phenoxy]-3-oxa-7-azabicycle[3.3.1]nonane-7-carboxylate] | –
11 | 5.69 | 7.59 | Cc1cnc(-c2cc(OCC34CC(CO3)N(C)C4)cc(C(=O)N[C@H](C)c3cnc(C(F)(F)F)nc3)c2)s1 (stereo partly drawn) [Example 406, 3-[(5-methyl-2-oxa-5-azabicyclo[2.2.1]hept-1-yl)methoxy]-5-(5-methyl-1,3-thiazol-2-yl)-N-{(1R)-1-[2-(trifluoromethyl)pyrimidin-5-yl]ethyl}benzamide] | –
12 | 7.08 | 7.92 | CC(=O)N1CCC(Oc2cc(C(=O)N[C@H](C)c3cnc(C(F)(F)F)nc3)cc(-c3ncc(C)s3)c2)CC1 [Example 150, 3-[(1-acetylpiperidin-4-yl)oxy]-5-(5-methyl-1,3-thiazol-2-yl)-N-{(1R)-1-[2-(trifluoromethyl)pyrimidin-5-yl]ethyl}benzamide] | –
13 | 5.66 | 5.85 | C[C@H](NC(=O)c1cc(OC[C@H]2CCOC2)cc(-c2ncc(C3CCC3)s2)c1)c1cnc(C(F)(F)F)nc1 [Example 239, 3-(5-cyclobutyl-1,3-thiazol-2-yl)-5-[(3S)-tetrahydrofuran-3-ylmethoxy]-N-{(1S)-1-[2-(trifluoromethyl)pyrimidin-5-yl]ethyl}benzamide] | –
14 | 5.57 | 7.30 | Cc1ncc([C@@H](C)NC(=O)c2cc(OC3COC3)cc(-c3ncc(C)s3)c2)cn1 [Example 43, N-[(1R)-1-(2-Methylpyrimidin-5-yl)ethyl]-3-(5-methyl-1,3-thiazol-2-yl)-5-(oxetan-3-yloxy)benzamide] | –
15 | 5.85 | 7.51 | Cc1cnc(-c2cc(OC[C@@H]3COCCO3)cc(C(=O)N[C@H](C)c3ccc(C(F)(F)F)nc3)c2)s1 [Example 180, 3-[(2S)-1,4-dioxan-2-ylmethoxy]-5-(5-methyl-1,3-thiazol-2-yl)-N-{(1R)-1-[6-(trifluoromethyl)pyridin-3-yl]ethyl}benzamide] | –
16 | 7.11 | 8.52 | Cc1cnc(-c2cc(OC[C@H]3CCOC3)cc(C(=O)N[C@H](C)c3cnc(C(F)(F)F)nc3)c2)s1 [Example 70, 3-(5-Methyl-1,3-thiazol-2-yl)-5-[(3S)-tetrahydrofuran-3-ylmethoxy]-N-[(1R)-1-[2-(trifluoromethyl)pyrimidin-5-yl]ethyl]benzamide] | –
17 | 7.15 | 8.10 | Cc1ncc([C@@H](C)NC(=O)c2cc(OC3CCN(CC(F)F)CC3)cc(-c3ncc(C)s3)c2)cn1 [Example 309, 3-{[1-(2,2-difluoroethyl)piperidin-4-yl]oxy}-N-[(1R)-1-(2-methylpyrimidin-5-yl)ethyl]-5-(5-methyl-1,3-thiazol-2-yl)benzamide] | –
18 | 6.88 | 8.15 | Cc1cnc([C@@H](C)NC(=O)c2cc(OCC3CCOCC3)cc(-c3ncc(C)s3)c2)cn1 [Example 94, N-[(1R)-1-(5-Methylpyrazin-2-yl)ethyl]-3-(5-methyl-1,3-thiazol-2-yl)-5-(tetrahydro-2H-pyran-4-ylmethoxy)benzamide] | –
19 | 6.35 | 6.60 | Cc1ccc([C@@H](C)NC(=O)c2cc(O[C@H]3CCOC3)cc(-c3ncc(C(C)C)s3)c2)nn1 [Example 255, N-[(1R)-1-(6-methylpyridazin-3-yl)ethyl]-3-[5-(propan-2-yl)-1,3-thiazol-2-yl]-5-[(3S)-tetrahydrofuran-3-yloxy]benzamide] | –
20 | 6.55 | 8.15 | Cc1cnc(-c2cc(O[C@@H]3CC[C@H]4[C@H]3OCCN4C)cc(C(=O)N[C@H](C)c3cnc(C(F)(F)F)nc3)c2)s1 [Example 218, 3-{[(4aS,7R, 7aR)-4-methyloctahydro-cyclopenta [b][1,4]oxazin-7-yl]oxy}-5-(5-methyl-1,3-thiazol-2-yl)-N-{(1R)-1-[2-(trifluoromethyl)pyrimidin-5-yl]ethyl} benzamide] | –
21 | 6.74 | 8.00 | Cc1ccc([C@@H](C)NC(=O)c2cc(OC[C@@H]3CCOC3)cc(-c3ncc(C)s3)c2)nn1 [Example 77, N-[(1R)-1-(6-Methylpyridazin-3-yl)ethyl]-3-(5-methyl-1,3-thiazol-2-yl)-5-[(3R)-tetrahydrofuran-3-ylmethoxy]benzomide] | –

Row | Structure (SMILES) | pIC50 [1] | pIC50 [2, 3] | pIC50 [2]
22 | Cc1ccc([C@@H](C)NC(=O)c2cc(OC[C@@H]3CCCO3)cc(-c3ncc(C(C)C)s3)c2)nn1 [Example 288, N-[(1R)-1-(6-methylpyridazin-3-yl)ethyl]-3-[5-(propan-2-yl)-1,3-thiazol-2-yl]-5-[(2S)-tetrahydrofuran-2-ylmethoxy]benzamide] | 5.88 | 6.82 | –
23 | Cc1ccc(CNC(=O)c2cc(OC3CCN(CC(F)F)CC3)cc(-c3ncc(C)s3)c2)nn1 [Example 307, 3-{[1-(2,2-difluoroethyl)piperidin-4-yl]oxy}-N-[(6-methylpyridazin-3-yl)methyl]-5-(5-methyl-1,3-thiazol-2-yl)benzamide] | 6.99 | – | 7.80
24 | Cc1cnc(-c2cc(OC3CCN(CC(F)F)CC3)cc(C(=O)N[C@@H](C)c3cnc(C(F)(F)F)nc3)c2)s1 [Example 308, 3-{[1-(2,2-difluoroethyl)piperidin-4-yl]oxy}-5-(5-methyl-1,3-thiazol-2-yl)-N-{(1S)-1-[2-(trifluoromethyl)pyrimidin-5-yl]ethyl}benzamide] | 5.59 | 6.82 | –
25 | C[C@@H](NC(=O)c1cc(OC[C@@H]2CCCO2)cc(-c2ncc(C3CCC3)s2)c1)c1cnc(C(F)(F)F)nc1 [Example 287, 3-(5-cyclobutyl-1,3-thiazol-2-yl)-5-[(2S)-tetrahydrofuran-2-ylmethoxy]-N-{(1R)-1-[2-(trifluoromethyl)pyrimidin-5-yl]ethyl}benzamide] | 6.56 | 7.46 | –
26 | CCc1cnc(-c2cc(OC[C@@H]3CCOC3)cc(C(=O)N[C@H](C)c3cnc(C)cn3)c2)s1 [Example 259, 3-(5-ethyl-1,3-thiazol-2-yl)-N-[(1R)-1-(5-methylpyrazin-2-yl)ethyl]-5-[(3R)-tetrahydrofuran-3-ylmethoxy]benzamide] | 6.99 | 8.00 | –
27 | CC(C)c1cnc(-c2cc(OC[C@H]3CCCO3)cc(C(=O)N[C@H](C)c3ccc(C(F)(F)F)nn3)c2)s1 [Example 299, 3-[5-(propan-2-yl)-1,3-thiazol-2-yl]-5-[(2R)-tetrahydrofuran-2-ylmethoxy]-N-{(1R)-1-[6-(trifluoromethyl)pyridazin-3-yl]ethyl}benzamide] | 6.24 | 7.43 | –
